Reference: patent publication US20100099897A1, “STABLE ANHYDROUS CRYSTALLINE DOCETAXEL AND METHOD FOR THE PREPARATION THEREOF” (HANMI PHARM. CO., LTD., priority 2007, published 2010)

Key:
[1] = Stability under a high temperature/humidity condition (HPLC purity after aging); assay type: physicochemical; details: for Purity after 1 week / Purity after 2 weeks / Purity after 4 weeks / Initial purity / Purity after 8 weeks: HPLC; for Initial purity: before aging
Description: The long-term storage stabilities of anhydrous crystalline forms of docetaxel prepared in Examples 1, 4, 5, and 6, respectively were compared with that of docetaxel trihydrate prepared according to the method of U.S. Pat. No. 6,022,985 by subjecting sample thereof to aging under a high temperature/humidity condition (60±2° C.; 75±5% relative humidity). The amounts of the original compound in each sample after 1, 2, 4 and 8 weeks were determined by high performance liquid chromatography (HPLC).

[2] = Storage for 7 days at 40° C. under a relative humidity of 25% to 50%; assay type: physicochemical; details: comparable condition: 7 days, relative humidity 25% to 50%
[3] = 60±2° C., 75±5% relative humidity

Row | Purity after 1 week [1, 3] | Purity after 2 weeks [1, 3] | Purity after 4 weeks [1, 3] | Storage stability under a high temperature/humidity condition (in words) ([1]; 60±2° C., 75±5% relative humidity, up to 8 weeks) | Initial purity [1] | Dehydration during storage [2] | Purity after 8 weeks [1, 3] | SMILES
1 | 99.8% | 99.7% | 99.6% |  | 99.8% |  | 99.5% | CC(=O)O[C@@]12CO[C@@H]1C[C@H](O)[C@@]1(C)C(=O)[C@H](O)C3=C(C)[C@@H](OC(=O)[C@H](O)[C@@H](NC(=O)OC(C)(C)C)c4ccccc4)C[C@@](O)([C@@H](OC(=O)c4ccccc4)[C@H]21)C3(C)C [Example 4, docetaxel]
2 | 99.7% | 99.7% | 99.6% |  | 99.7% |  | 99.6% | CC(=O)O[C@@]12CO[C@@H]1C[C@H](O)[C@@]1(C)C(=O)[C@H](O)C3=C(C)[C@@H](OC(=O)[C@H](O)[C@@H](NC(=O)OC(C)(C)C)c4ccccc4)C[C@@](O)([C@@H](OC(=O)c4ccccc4)[C@H]21)C3(C)C [Example 5, docetaxel]
3 | 99.7% | 99.7% | 99.6% |  | 99.7% |  | 99.5% | CC(=O)O[C@@]12CO[C@@H]1C[C@H](O)[C@@]1(C)C(=O)[C@H](O)C3=C(C)[C@@H](OC(=O)[C@H](O)[C@@H](NC(=O)OC(C)(C)C)c4ccccc4)C[C@@](O)([C@@H](OC(=O)c4ccccc4)[C@H]21)C3(C)C [Example 6, docetaxel]

Further lines, the molecule ahead of its results:

Row | SMILES | Purity after 1 week [1, 3] | Purity after 2 weeks [1, 3] | Purity after 4 weeks [1, 3] | Storage stability under a high temperature/humidity condition (in words) ([1]; 60±2° C., 75±5% relative humidity, up to 8 weeks) | Initial purity [1] | Dehydration during storage [2] | Purity after 8 weeks [1, 3]
4 | CC(=O)O[C@@]12CO[C@@H]1C[C@H](O)[C@@]1(C)C(=O)[C@H](O)C3=C(C)[C@@H](OC(=O)[C@H](O)[C@@H](NC(=O)OC(C)(C)C)c4ccccc4)C[C@@](O)([C@@H](OC(=O)c4ccccc4)[C@H]21)C3(C)C [Docetaxel trihydrate, docetaxel trihydrate, reference compound] | 99.3% | 99.0% | 98.7% | rapid degradation | 99.4% | at least 50% | 
5 | CC(=O)O[C@@]12CO[C@@H]1C[C@H](O)[C@@]1(C)C(=O)[C@H](O)C3=C(C)[C@@H](OC(=O)[C@H](O)[C@@H](NC(=O)OC(C)(C)C)c4ccccc4)C[C@@](O)([C@@H](OC(=O)c4ccccc4)[C@H]21)C3(C)C [Example 1, docetaxel] | 99.8% | 99.8% | 99.7% |  | 99.8% |  | 99.6%
